Results reported in ChEMBL document CHEMBL4145634, “Discovery of Janus Kinase 2 (JAK2) and Histone Deacetylase (HDAC) Dual Inhibitors as a Novel Strategy for the Combinational Treatment of Leukemia and Invasive Fungal Infections” (J Med Chem, 2018).
In brackets after ≈: the same amount, converted by molar mass. Activity calls are given as the source filed them. The rule behind the calls is not given here.

Experiments:
Candida albicans [1] = assay: Synergistic antifungal activity against FLC resistant Candida albicans 0710922 assessed as FIC index after 48 hrs by checkerboard microdilution method; format: functional
Candida albicans [2] = assay: Antifungal activity against FLC resistant Candida albicans 0304103 at 32 ug/ml up to 24 hrs by checkerboard microdilution method; format: functional, organism-based
Candida albicans [3] = assay: microbe, parasite or virus in culture; format: functional; settings: Candida albicans, 0710922, 48 h
Description: Antifungal activity against FLC resistant Candida albicans 0710922 after 48 hrs by checkerboard microdilution method

Candida albicans [4] = assay: Antibiofilm activity against FLC resistant Candida albicans 0304103 assessed as inhibition of biofilm formation pre-incubated with 64 ug/ml FLC for 90 mins followed by further incubation with compound at 16 ug/ml for 24 hrs by XTT reduction assay; format: functional
K562 = assay: Antiproliferative activity against human K562 cells after 48 hrs by CCK-8 assay; format: functional, cell-based; settings: K562, 48 h
Histone deacetylase 8 = biological target: T1, Histone deacetylase 8 (Homo sapiens, UniProt Q9BY41); assay: Inhibition of full length recombinant C-terminal His tagged human HDAC8 expressed in Baculovirus infected Sf9 cells using Ac-Leu-Gly-Lys(Tfa)-AMC as substrate preincubated for 5 mins followed by substrate addition and measured after 30 mins by fluorescence assay
T1 sequence (Q9BY41 whole entry): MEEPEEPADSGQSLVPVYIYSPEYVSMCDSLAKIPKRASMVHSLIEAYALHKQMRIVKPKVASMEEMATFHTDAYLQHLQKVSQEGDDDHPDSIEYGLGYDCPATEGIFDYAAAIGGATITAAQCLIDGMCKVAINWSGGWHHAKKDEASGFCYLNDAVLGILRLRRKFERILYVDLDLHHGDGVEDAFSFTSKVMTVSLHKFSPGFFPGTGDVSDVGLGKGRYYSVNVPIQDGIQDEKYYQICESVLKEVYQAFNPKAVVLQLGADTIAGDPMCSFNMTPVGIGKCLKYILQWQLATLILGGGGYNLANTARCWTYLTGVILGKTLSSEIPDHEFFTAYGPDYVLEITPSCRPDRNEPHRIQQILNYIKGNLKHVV

Mus musculus [5] = assay: In vivo antifungal activity against FLC resistant Candida albicans 0304103 infected in ICR mouse assessed as mouse survival at 5 mg/kg, ip qd up to 20 days in co-treated with 1 mg/kg, ip qd fluconazol (reference value: 4.5 day); format: functional
[6] = biological target: T2, Tyrosine-protein kinase JAK2 (Homo sapiens, UniProt O60674); assay: Inhibition of JAK2 (unknown origin) using FAM-labeled peptide as substrate preincubated for 10 mins followed by substrate addition and measured after 25 mins in presence of ATP
T2 sequence (O60674 whole entry): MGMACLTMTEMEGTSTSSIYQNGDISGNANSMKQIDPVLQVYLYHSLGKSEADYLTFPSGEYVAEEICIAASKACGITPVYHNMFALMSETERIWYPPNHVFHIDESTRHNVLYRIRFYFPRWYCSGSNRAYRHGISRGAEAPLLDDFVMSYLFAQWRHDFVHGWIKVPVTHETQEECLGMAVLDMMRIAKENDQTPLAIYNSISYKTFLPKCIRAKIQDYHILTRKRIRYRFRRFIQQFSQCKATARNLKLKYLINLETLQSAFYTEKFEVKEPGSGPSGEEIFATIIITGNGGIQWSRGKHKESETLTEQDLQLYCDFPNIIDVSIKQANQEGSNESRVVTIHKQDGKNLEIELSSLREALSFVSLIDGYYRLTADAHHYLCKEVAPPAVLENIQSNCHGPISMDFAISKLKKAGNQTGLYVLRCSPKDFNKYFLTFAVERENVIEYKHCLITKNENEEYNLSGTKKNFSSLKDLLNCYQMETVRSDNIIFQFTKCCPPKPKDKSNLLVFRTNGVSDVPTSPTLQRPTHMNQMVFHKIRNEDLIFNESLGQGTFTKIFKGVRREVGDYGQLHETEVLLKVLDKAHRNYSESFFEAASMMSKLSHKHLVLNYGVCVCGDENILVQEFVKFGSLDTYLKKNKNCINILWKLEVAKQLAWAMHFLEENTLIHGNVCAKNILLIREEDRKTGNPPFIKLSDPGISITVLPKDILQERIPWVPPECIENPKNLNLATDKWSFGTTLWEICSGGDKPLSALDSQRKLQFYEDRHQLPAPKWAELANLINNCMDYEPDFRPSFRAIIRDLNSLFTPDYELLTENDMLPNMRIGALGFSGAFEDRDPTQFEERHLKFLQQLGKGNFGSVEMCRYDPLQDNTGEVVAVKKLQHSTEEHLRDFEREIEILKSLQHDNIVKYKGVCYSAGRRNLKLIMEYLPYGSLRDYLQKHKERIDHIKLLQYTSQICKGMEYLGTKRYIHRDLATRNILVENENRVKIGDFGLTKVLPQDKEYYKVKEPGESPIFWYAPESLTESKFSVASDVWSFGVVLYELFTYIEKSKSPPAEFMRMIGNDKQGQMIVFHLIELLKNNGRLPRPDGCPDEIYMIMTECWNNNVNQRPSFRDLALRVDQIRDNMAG

Candida albicans [7] = assay: Antifungal activity against FLC resistant Candida albicans 100 after 48 hrs in presence of fluconazol by checkerboard microdilution method; format: functional; settings: Candida albicans, 100, 48 h
HEL [8] = assay: Cell cycle arrest in human HEL cells assessed as accumulation at G2/M phase at 5 uM after 48 hrs propidium iodide staining based flow cytometry (reference value: 9.31%); format: functional
Mus musculus [9] = assay: Toxicity in BALB/C nude mouse xenografted with human HEL cells at 10 mg/kg, ip bid treated for 21 consecutive days; format: organism-based; settings: in vivo
Candida albicans [10] = assay: microbe, parasite or virus in culture; format: functional; settings: Candida albicans, 0710922, 48 h; remark: listed apart in the source
Description: Antifungal activity against FLC resistant Candida albicans 0710922 after 48 hrs in presence of fluconazol by checkerboard microdilution method

[11] = biological target: Histone deacetylase (Homo sapiens) (UniProt Q13547+O15379+Q9UBN7+Q92769+Q9UQL6+Q8WUI4+Q9BY41+Q96DB2+P56524+Q9UKV0+Q969S8); assay: Inhibition of HDAC in human HEL cells assessed as increased in histone H3 acetylation after 24 hrs by Western blot analysis; format: cell-based
Candida albicans [12] = assay: Antibiofilm activity against FLC resistant Candida albicans 0304103 assessed as inhibition of biofilm formation pre-incubated with 64 ug/ml FLC for 90 mins followed by further incubation with compound for 24 hrs by XTT reduction assay; format: functional, organism-based
[13] = biological target: T2, Tyrosine-protein kinase JAK2; assay: Inhibition of JAK2 in human HEL cells assessed as decrease in STAT5 phosphorylation after 24 hrs by Western blot analysis; format: cell-based
HEL [14] = assay: Antitumor activity in human HEL cells xenografted in SCID mouse assessed as increase in mouse survival at 10 mg/kg, ip qd measured up to 40 days; format: functional, organism-based
[15] = biological target: T3, Tyrosine-protein kinase JAK3 (Homo sapiens, UniProt P52333); assay: Inhibition of JAK3 (unknown origin) using FAM-labeled peptide as substrate preincubated for 10 mins followed by substrate addition and measured after 25 mins in presence of ATP
T3 sequence (P52333 whole entry): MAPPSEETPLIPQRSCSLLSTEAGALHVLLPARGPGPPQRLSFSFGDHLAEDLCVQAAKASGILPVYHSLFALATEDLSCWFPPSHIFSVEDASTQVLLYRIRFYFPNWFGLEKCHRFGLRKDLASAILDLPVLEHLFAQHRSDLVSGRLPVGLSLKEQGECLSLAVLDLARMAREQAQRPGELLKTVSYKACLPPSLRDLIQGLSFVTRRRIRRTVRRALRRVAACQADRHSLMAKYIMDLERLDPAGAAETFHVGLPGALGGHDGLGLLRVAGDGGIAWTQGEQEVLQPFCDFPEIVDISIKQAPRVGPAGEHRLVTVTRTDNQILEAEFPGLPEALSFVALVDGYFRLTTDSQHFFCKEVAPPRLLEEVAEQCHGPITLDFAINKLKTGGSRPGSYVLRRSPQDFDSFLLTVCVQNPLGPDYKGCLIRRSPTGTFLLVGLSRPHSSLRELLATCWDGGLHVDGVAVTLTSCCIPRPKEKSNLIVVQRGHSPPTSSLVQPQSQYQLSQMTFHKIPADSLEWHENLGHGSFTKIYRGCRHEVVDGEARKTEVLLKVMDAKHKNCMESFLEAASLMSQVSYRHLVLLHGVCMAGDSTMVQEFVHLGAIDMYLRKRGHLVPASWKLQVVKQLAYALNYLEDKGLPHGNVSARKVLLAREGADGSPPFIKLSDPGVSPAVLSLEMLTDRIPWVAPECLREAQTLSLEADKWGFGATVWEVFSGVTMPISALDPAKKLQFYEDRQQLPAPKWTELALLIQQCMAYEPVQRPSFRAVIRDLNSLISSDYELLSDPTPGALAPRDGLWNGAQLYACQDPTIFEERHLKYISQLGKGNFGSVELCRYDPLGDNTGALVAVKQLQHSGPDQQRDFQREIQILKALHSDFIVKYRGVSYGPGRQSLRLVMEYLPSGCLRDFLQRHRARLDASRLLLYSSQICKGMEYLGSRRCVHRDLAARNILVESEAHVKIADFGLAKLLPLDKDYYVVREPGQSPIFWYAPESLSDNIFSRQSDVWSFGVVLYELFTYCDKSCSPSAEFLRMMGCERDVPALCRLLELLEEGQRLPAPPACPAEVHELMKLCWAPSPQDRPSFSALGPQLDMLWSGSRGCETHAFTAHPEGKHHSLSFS

HEL [16] = assay: Cell cycle arrest in human HEL cells assessed as accumulation at S phase at 5 uM after 48 hrs propidium iodide staining based flow cytometry relative to control; format: functional
HEL [17] = assay: Antitumor activity in human HEL cells xenografted in SCID mouse assessed as mouse survival time at 10 mg/kg, ip qd; format: functional

SMILES | fractional inhibitory concentration index (FICI) (Candida albicans [1]) | Activity (Candida albicans [2]) | MIC50 (Candida albicans [3]) | inhibition (INH) (Candida albicans [4]) | IC50 (K562) | IC50 (Histone deacetylase 8) | MST (Mus musculus [5]) | IC50 [6] | MIC50 (Candida albicans [7]) | Activity (HEL [8]) | Activity (Mus musculus [9]) | MIC50 (Candida albicans [10]) | inhibition [11] | inhibition (Candida albicans [12]) | inhibition [13] | Activity (HEL [14]) | IC50 [15] | Activity (HEL [16]) | Survival (HEL [17])
CS(=O)(=O)Nc1ccc(-c2ccnc(Nc3ccc(N4CCC(C(=O)Nc5ccc(/C=C/C(=O)NO)cc5)CC4)cc3)n2)cc1 | 0.14 | inactive | > 64 µg/mL | 30% | 8700 nM | 6070 nM | 11.5 days | 8 nM | 4 µg/mL | 28.14% | Non-Toxic | 8 µg/mL (≈ 12.7 µM) | Dose-dependent effect | Dose-dependent effect | Dose-dependent effect | Active | 121 nM |  | 
O=C(NO)c1ccc(-c2ccnc(Nc3ccc(N4CCOCC4)cc3)n2)cc1 | 0.27 | inactive | > 64 µg/mL | 30% | 4000 nM | 609 nM | 11 days | 85 nM | 8 µg/mL |  | Non-Toxic | 16 µg/mL (≈ 40.9 µM) | Dose-dependent effect | Dose-dependent effect | Dose-dependent effect | Active | 517 nM | 18.9% | 27 days
CS(=O)(=O)Nc1ccc(-c2ccnc(Nc3ccc(N4CCC(C(=O)NCCCCCCCC(=O)NO)CC4)cc3)n2)cc1 | 0.26 | inactive | > 64 µg/mL |  | 5900 nM | 572 nM | 13 days | 2 nM | 8 µg/mL | 8.12% | Non-Toxic | 16 µg/mL (≈ 25.7 µM) | Dose-dependent effect | Dose-dependent effect | Dose-dependent effect | Active | 144 nM | 34.37% | 27 days
